# Experiments:
# [1] = system: Pseudomonas aeruginosa; assay: Antibacterial activity against multi-drug resistant Pseudomonas aeruginosa clinical isolate 101243 assessed as inhibition of bacterial growth incubated for 18 hrs by two fold broth microdilution assay; assay type: functional
# [2] = system: Pseudomonas aeruginosa; assay: Antibacterial activity against multi-drug resistant Pseudomonas aeruginosa clinical isolate PA264 assessed as inhibition of bacterial growth incubated for 18 hrs by two fold broth microdilution assay; assay type: functional
# [3] = system: Acinetobacter baumannii; assay: Antibacterial activity against multi-drug resistant Acinetobacter baumannii clinical isolate AB031 assessed as inhibition of bacterial growth incubated for 18 hrs by two fold broth microdilution assay; assay type: functional
# [4] = system: Acinetobacter baumannii; assay: Antibacterial activity against multi-drug resistant Acinetobacter baumannii clinical isolate LAC-4 assessed as inhibition of bacterial growth incubated for 18 hrs by two fold broth microdilution assay; assay type: functional
# [5] = system: Escherichia coli; assay: Antibiotic adjuvant activity against multi-drug resistant Escherichia coli clinical isolate 94393 assessed as rifampicin MIC incubated for 18 hrs in presence of Rifampicin by two fold broth microdilution checkerboard assay; assay type: functional
# [6] = system: Acinetobacter baumannii; assay: Antibiotic adjuvant activity against multi-drug resistant Acinetobacter baumannii clinical isolate LAC-4 assessed as rifampicin MIC incubated for 18 hrs in presence of Rifampicin by two fold broth microdilution checkerboard assay; assay type: functional
# [7] = system: Escherichia coli; assay: Antibiotic adjuvant activity against multi-drug resistant Escherichia coli clinical isolate 107115 assessed as inhibition of bacterial growth incubated for 18 hrs in presence of Rifampicin by two fold broth microdilution checkerboard assay; assay type: functional
# [8] = system: Pseudomonas aeruginosa; assay: Antibiotic adjuvant activity against multi-drug resistant Pseudomonas aeruginosa clinical isolate PA264 assessed as fold potentiation incubated for 18 hrs in presence of Rifampicin by two fold broth microdilution checkerboard assay; assay type: functional
# [9] = system: Pseudomonas aeruginosa; assay: Antibiotic adjuvant activity against multi-drug resistant Pseudomonas aeruginosa clinical isolate 114228 assessed as fractional inhibitory concentration index incubated for 18 hrs in presence of Rifampicin by two fold broth microdilution checkerboard assay; assay type: functional
# [10] = system: Pseudomonas aeruginosa; assay: Antibiotic adjuvant activity against multi-drug resistant Pseudomonas aeruginosa clinical isolate PA264 assessed as fractional inhibitory concentration index incubated for 18 hrs in presence of Rifampicin by two fold broth microdilution checkerboard assay; assay type: functional
# [11] = system: Escherichia coli; assay: Antibiotic adjuvant activity against multi-drug resistant Escherichia coli clinical isolate 107115 assessed as fractional inhibitory concentration index incubated for 18 hrs in presence of Rifampicin by two fold broth microdilution checkerboard assay; assay type: functional
# [12] = system: Escherichia coli; assay: Antibiotic adjuvant activity against multi-drug resistant Escherichia coli clinical isolate 94393 assessed as fractional inhibitory concentration index incubated for 18 hrs in presence of Rifampicin by two fold broth microdilution checkerboard assay; assay type: functional
# [13] = system: Acinetobacter baumannii; assay: Antibiotic adjuvant activity against multi-drug resistant Acinetobacter baumannii clinical isolate LAC-4 assessed as fractional inhibitory concentration index incubated for 18 hrs in presence of Rifampicin by two fold broth microdilution checkerboard assay; assay type: functional
# [14] = system: Pseudomonas aeruginosa; assay: Antibiotic adjuvant activity against multi-drug resistant Pseudomonas aeruginosa clinical isolate PA264 assessed as minocycline MIC incubated for 18 hrs in presence of minocycline by two fold broth microdilution checkerboard assay; assay type: functional
# [15] = system: Pseudomonas aeruginosa; assay: Antibiotic adjuvant activity against multi-drug resistant Pseudomonas aeruginosa clinical isolate PA101243 assessed as inhibition of bacterial growth incubated for 18 hrs in presence of minocycline by two fold broth microdilution checkerboard assay; assay type: functional
# [16] = system: Pseudomonas aeruginosa; assay: Antibiotic adjuvant activity against multi-drug resistant Pseudomonas aeruginosa clinical isolate PA259 assessed as inhibition of bacterial growth incubated for 18 hrs in presence of minocycline by two fold broth microdilution checkerboard assay; assay type: functional
# [17] = system: Escherichia coli; assay: Antibiotic adjuvant activity against multi-drug resistant Escherichia coli clinical isolate EC94474 assessed as inhibition of bacterial growth incubated for 18 hrs in presence of minocycline by two fold broth microdilution checkerboard assay; assay type: functional
# [18] = system: Pseudomonas aeruginosa; assay: Antibiotic adjuvant activity against multi-drug resistant Pseudomonas aeruginosa clinical isolate PA264 assessed as fold potentiation incubated for 18 hrs in presence of minocycline by two fold broth microdilution checkerboard assay; assay type: functional
# [19] = system: Pseudomonas aeruginosa; assay: Antibiotic adjuvant activity against multi-drug resistant Pseudomonas aeruginosa clinical isolate PA259 assessed as fractional inhibitory concentration index incubated for 18 hrs in presence of minocycline by two fold broth microdilution checkerboard assay; assay type: functional
# [20] = system: Pseudomonas aeruginosa; assay: Antibiotic adjuvant activity against multi-drug resistant Pseudomonas aeruginosa clinical isolate PA262 assessed as inhibition of bacterial growth incubated for 18 hrs in presence of doxycycline by two fold broth microdilution checkerboard assay; assay type: functional
# [21] = system: Pseudomonas aeruginosa; assay: Antibiotic adjuvant activity against multi-drug resistant Pseudomonas aeruginosa clinical isolate PA264 assessed as inhibition of bacterial growth incubated for 18 hrs in presence of doxycycline by two fold broth microdilution checkerboard assay; assay type: functional
# [22] = system: Pseudomonas aeruginosa; assay: Antibiotic adjuvant activity against multi-drug resistant Pseudomonas aeruginosa clinical isolate PA114228 assessed as fold potentiation incubated for 18 hrs in presence of doxycycline by two fold broth microdilution checkerboard assay; assay type: functional
# [23] = system: Pseudomonas aeruginosa; assay: Antibiotic adjuvant activity against multi-drug resistant Pseudomonas aeruginosa clinical isolate PA259 assessed as fractional inhibitory concentration index incubated for 18 hrs in presence of doxycycline by two fold broth microdilution checkerboard assay; assay type: functional
# [24] = system: Escherichia coli; assay: Antibiotic adjuvant activity against multi-drug resistant Escherichia coli clinical isolate EC94474 assessed as fractional inhibitory concentration index incubated for 18 hrs in presence of doxycycline by two fold broth microdilution checkerboard assay; assay type: functional
# [25] = system: Staphylococcus aureus; assay: Antibiotic adjuvant activity against methicilin-resistant Staphylococcus aureus assessed as rifampicin MIC incubated for 18 hrs in presence of rifampicin by two fold broth microdilution checkerboard assay; assay type: functional
# [26] = system: Enterococcus faecium; assay: Antibiotic adjuvant activity against Enterococcus faecium 114278 assessed as inhibition of bacterial growth incubated for 18 hrs in presence of rifampicin by two fold broth microdilution checkerboard assay; assay type: functional
# [27] = system: Enterococcus faecium; assay: Antibiotic adjuvant activity against Enterococcus faecium 114278 assessed as fold potentiation incubated for 18 hrs in presence of rifampicin by two fold broth microdilution checkerboard assay; assay type: functional
# [28] = system: Enterococcus faecium; assay: Antibiotic adjuvant activity against Enterococcus faecium 114278 assessed as fractional inhibitory concentration index incubated for 18 hrs in presence of rifampicin by two fold broth microdilution checkerboard assay; assay type: functional
# [29] = system: Acinetobacter baumannii; assay: Antibiotic adjuvant activity against Acinetobacter baumannii ATCC 17978 assessed as rifampicin MIC incubated for 18 hrs in presence of Rifampicin by two fold broth microdilution checkerboard assay; assay type: functional
# [30] = system: Cell membrane; assay: Induction of outer membrane permeabilization in Escherichia coli ATCC 25922 assessed as increase fluorescence intensity by measuring NPN uptake factor at 4 to 8 uM by fluorescence based analysis; assay type: subcellular; details: dose 4-8 µM, TDE = time-dependent effect
# [31] = system: Acinetobacter baumannii; assay: Antibiotic adjuvant activity against Acinetobacter baumannii ATCC 17978 assessed as fold potentiation incubated for 18 hrs in presence of rifampicin and CAMHB Mg2+ media by two fold broth microdilution checkerboard assay; assay type: functional
# [32] = system: Acinetobacter baumannii; assay: Antibiotic adjuvant activity against Acinetobacter baumannii ATCC 17978 assessed as fold increase in MIC incubated for 18 hrs in presence of rifampicin and CAMHB Mg2+ media by two fold broth microdilution checkerboard assay; assay type: functional
# [33] = system: Acinetobacter baumannii; assay: Antibiotic adjuvant activity against Acinetobacter baumannii ATCC 17978 assessed as fold potentiation at 16 ug/ml incubated for 18 hrs in presence of rifampicin and 25 % FBS media by two fold broth microdilution checkerboard assay; assay type: functional; details: dose 16 µg/ml
# [34] = system: Acinetobacter baumannii; assay: Antibiotic adjuvant activity against Acinetobacter baumannii ATCC 17978 assessed as minocycline MIC incubated for 18 hrs in presence of minocycline by two fold broth microdilution checkerboard assay; assay type: functional
# [35] = system: Escherichia coli; assay: Antibiotic adjuvant activity against Escherichia coli ATCC 25922 assessed as minocycline MIC incubated for 18 hrs in presence of minocycline by two fold broth microdilution checkerboard assay; assay type: functional
structure (smiles),measurement,setting,value
Cl.NC[C@H]1O[C@H](O[C@H]2[C@H](OCc3ccccc3)[C@@H](O[C@H]3O[C@H](COCc4ccccc4)[C@@H](OCc4ccccc4)[C@H](N)[C@H]3OCc3ccccc3)[C@H](N)C[C@@H]2N)[C@H](N)C[C@@H]1OCc1ccccc1,MIC,[1],64 µg/mL
same,MIC,[2],128 µg/mL
same,MIC,[3],32 µg/mL
same,MIC,[4],16 µg/mL
same,MIC,[5],32 µg/mL
same,MIC,[6],0.002 µg/mL
same,MIC,[7],2 µg/mL
same,fold change (FC),[8],1
same,fractional inhibitory concentration index (FICI),[9],1.125
same,fractional inhibitory concentration index (FICI),[10],1.063
same,fractional inhibitory concentration index (FICI),[11],0.063
same,fractional inhibitory concentration index (FICI),[12],1.25
same,fractional inhibitory concentration index (FICI),[13],0.251
same,MIC,[14],16 µg/mL
same,MIC,[15],8 µg/mL
same,MIC,[16],8 µg/mL
same,MIC,[17],8 µg/mL
same,fold change (FC),[18],2
same,fractional inhibitory concentration index (FICI),[19],1.063
same,MIC,[20],8 µg/mL
same,MIC,[21],8 µg/mL
same,fold change (FC),[22],1
same,fractional inhibitory concentration index (FICI),[23],1.063
same,fractional inhibitory concentration index (FICI),[24],0.188
same,MIC,[25],256 µg/mL
same,MIC,[26],4 µg/mL
same,fold change (FC),[27],1
same,fractional inhibitory concentration index (FICI),[28],1.5
same,MIC,[29],0.004 µg/mL
same,Activity,[30],Tde
same,fold change (FC),[31],16
same,fold change (FC),[32],>=2
same,fold change (FC),[33],32
same,MIC,[34],≤ 4 µg/mL
same,MIC,[35],8 µg/mL

# From ChEMBL document CHEMBL5335843, “Application of tobramycin benzyl ether as an antibiotic adjuvant capable of sensitizing multidrug-resistant Gram-negative bacteria to rifampicin” (2024)
